Structures can show the parent of a compound that is named as a salt.
Biological target: T1, G9a (Homo sapiens, UniProt Q96KQ7)
T1 sequence (Q96KQ7 1-1210): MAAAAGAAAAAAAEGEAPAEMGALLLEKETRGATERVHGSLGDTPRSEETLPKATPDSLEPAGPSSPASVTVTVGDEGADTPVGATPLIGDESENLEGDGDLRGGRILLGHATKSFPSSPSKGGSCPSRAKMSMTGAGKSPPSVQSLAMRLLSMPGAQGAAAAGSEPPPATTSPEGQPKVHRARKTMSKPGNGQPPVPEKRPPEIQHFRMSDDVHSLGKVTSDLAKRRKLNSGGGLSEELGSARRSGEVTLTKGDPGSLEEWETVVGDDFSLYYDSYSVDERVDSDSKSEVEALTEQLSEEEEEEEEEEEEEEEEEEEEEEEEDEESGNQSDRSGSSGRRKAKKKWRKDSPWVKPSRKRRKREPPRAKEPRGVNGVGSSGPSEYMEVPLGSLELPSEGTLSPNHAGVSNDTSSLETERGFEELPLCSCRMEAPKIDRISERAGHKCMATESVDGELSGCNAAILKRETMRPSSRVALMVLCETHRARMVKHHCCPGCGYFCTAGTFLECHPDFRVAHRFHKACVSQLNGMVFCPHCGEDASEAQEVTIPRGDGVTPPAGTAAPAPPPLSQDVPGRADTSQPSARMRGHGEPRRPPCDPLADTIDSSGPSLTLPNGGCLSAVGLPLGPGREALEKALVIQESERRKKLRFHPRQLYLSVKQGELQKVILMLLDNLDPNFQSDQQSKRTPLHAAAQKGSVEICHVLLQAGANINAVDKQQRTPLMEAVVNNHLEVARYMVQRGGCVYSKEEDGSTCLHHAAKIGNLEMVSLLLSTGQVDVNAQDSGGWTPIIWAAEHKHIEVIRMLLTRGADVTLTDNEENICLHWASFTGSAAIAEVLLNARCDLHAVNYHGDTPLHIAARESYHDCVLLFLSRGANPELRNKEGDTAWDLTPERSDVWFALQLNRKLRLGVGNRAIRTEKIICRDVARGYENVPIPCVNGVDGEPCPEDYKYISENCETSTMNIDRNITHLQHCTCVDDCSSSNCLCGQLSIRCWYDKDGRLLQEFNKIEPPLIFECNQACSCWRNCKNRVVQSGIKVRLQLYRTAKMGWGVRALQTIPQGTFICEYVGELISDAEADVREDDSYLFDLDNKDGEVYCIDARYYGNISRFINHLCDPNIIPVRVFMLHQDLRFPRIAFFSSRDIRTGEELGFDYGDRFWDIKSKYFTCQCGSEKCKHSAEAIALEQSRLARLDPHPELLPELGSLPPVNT
Assay: G9a AlphaLISA enzymatic activity assay
Format: biochemical
Settings: 0.15 nM G9a, 15 uM S-adenosyl-methionine, 100 nM biotinylated histone 3 peptide (1-21), 1 hour at room temperature; read-out: G9a in (uM) (IC50, concentration that produced 50% inhibition)
Method in brief: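 Human G9a (0.15 nM) methylated 100 nM biotinylated histone H3(1-21) peptide with 15 uM SAM in Tris-HCl pH9 buffer with NaCl, Tween-20 and DTT, 1 h at room temperature. H3K9me2 was detected by AlphaLISA acceptor/streptavidin donor beads (20 ug/mL each); IC50 from percent inhibition across compound dilutions.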

IC50 [µM] | SMILES
3 | COc1cc2c3c(c(NC4CCN(C(C)C)CC4)nc2cc1OCCCN1CCCC1)CCCC3 [Example 39, 2-methoxy-N-[1-(propan-2-yl)piperidin-4-yl]-3-[3-(pyrrolidin-1-yl)propoxy]-7,8,9,10-tetrahydrophenanthridin-6-amine trifluoroacetate]
4.9 | COc1cc2c3c(c(-c4ccccc4)nc2cc1OCCCN1CCCC1)CCC3 [Example 111, 1-[3-({8-methoxy-4-phenyl-1H,2H,3H-cyclopenta[c]quinolin-7-yl}oxy)propyl]pyrrolidine formate]
4.3 | COc1cc2nc(NC(C)C)c3c(c2cc1OCCCN1CCCC1)COC3 [Example 45, 7-methoxy-N-(propan-2-yl)-8-[3-(pyrrolidin-1-yl)propoxy]-1H,3H-furo[3,4-c]quinolin-4-amine]
4.7 | COc1cc2c3c(c(N[C@H]4CCC[C@@H]4O)nc2cc1OCCCN1CCCC1)CCC3 [Example 124, (1S,25)-2-({8-methoxy-7-[3-(pyrrolidin-1-yl)propoxy]-1H,2H,3H-cyclopenta[c]quinolin-4-yl}amino)cyclopentan-1-ol formate]
0.013 | CCNc1nc2cc(OCCCN3CCCC3)c(OC)cc2c2c1CCC2 [Example 106, N-ethyl-8-methoxy-7-[3-(pyrrolidin-1-yl)propoxy]-1H,2H,3H-cyclopenta[c]quinolin-4-amine trifluoroacetate]
0.003 | COc1cc2c3c(c(C4CCCC4)nc2cc1OCCCN1CCCC1)CCCCN3 [Example 79, 1-[3-({6-cyclopentyl-10-methoxy-1H,2H,3H,4H,5H-azepino[3,2-c]quinolin-9-yl}oxy)propyl]pyrrolidine triflate]
1.4 | COc1cc2c3c(c(NC(C)(C)C)nc2cc1OCCCN1CCCC1)CCC3 [Example 94, N-tert-butyl-8-methoxy-7-[3-(pyrrolidin-1-yl)propoxy]-1H,2H,3H-cyclopenta[c]quinolin-4-amine formate]
0.5 | COc1cc2c3c(c(C4CCCC4)nc2cc1OCCCN1CCCC1)CCC3 [Example 109, 1-[3-({4-cyclopentyl-8-methoxy-1H,2H,3H-cyclopenta[c]quinolin-7-yl}oxy)propyl]pyrrolidine formate]
0.009 | COc1cc2c3c(c(C4CC4)nc2cc1OCCCN1CCCC1)CCCCN3 [Example 80, 1-[3-({6-cyclopropyl-10-methoxy-1H,2H,3H,4H,5H-azepino[3,2-c]quinolin-9-yl}oxy)propyl]pyrrolidine trifluoroacetate]
0.12 | COc1cc2c3c(c(NC4(C(=O)O)CC4)nc2cc1OCCCN1CCCC1)CCC3 [Example 62, 1-({8-methoxy-7-[3-(pyrrolidin-1-yl)propoxy]-1H,2H,3H-cyclopenta[c]quinolin-4-yl}amino)cyclopropane-1-carboxylic acid formate]
3 | COc1cc2c3c(c(O)nc2cc1OCCCN1CCCC1)CCCC3 [Example 38, 2-methoxy-3-[3-(pyrrolidin-1-yl)propoxy]-7,8,9,10-tetrahydrophenanthridin-6-ol trifluoroacetate]
1.4 | COc1cc2c3c(c(C4CCCCC4)nc2cc1OCCCN1CCCC1)CCC3 [Example 110, 1-[3-({4-cyclohexyl-8-methoxy-1H,2H,3H-cyclopenta[c]quinolin-7-yl}oxy)propyl]pyrrolidine trifluoroacetate]
0.15 | COc1cc2c3c(c(NC4CCC(O)C4)nc2cc1OCCCN1CCCC1)CCC3 (centres unmarked) [Example 126, 3-({8-methoxy-7-[3-(pyrrolidin-1-yl)propoxy]-1H,2H,3H-cyclopenta[c]quinolin-4-yl}amino)cyclopentan-1-ol formate]
0.15 | COc1cc2c3c(c(NCCC(C)C)nc2cc1OCCCN1CCCC1)CC(C)(C)C3 [Example 87, 8-methoxy-2,2-dimethyl-N-(3-methylbutyl)-7-[3-(pyrrolidin-1-yl)propoxy]-1H,2H,3H-cyclopenta[c]quinolin-4-amine formate]
0.007 | COc1cc2c3c(c(C(C)C)nc2cc1OCCCN1CCCC1)CCC(C)(C)N3 [Example 77, 1-(3-{[9-methoxy-2,2-dimethyl-5-(propan-2-yl)-1H,2H,3H,4H-benzo[h]1,6-naphthyridin-8-yl]oxy}propyl)pyrrolidine formate]

Continued, molecule first:

SMILES | IC50 [µM]
COc1cc2c3c(c(NC(C)=O)nc2cc1OCCCN1CCCC1)CCC3 [Example 14, N-{8-methoxy-7-[3-(pyrrolidin-1-yl)propoxy]-1H,2H,3H-cyclopenta[c]quinolin-4-yl}acetamide trifluoroacetate] | 0.19
COc1cc2c3c(c(NC(C)C)nc2cc1OCCCN1CCCC1)CC(C)(C)N3 [Example 25, 8-methoxy-2,2-dimethyl-N-(propan-2-yl)-7-[3-(pyrrolidin-1-yl)propoxy]-1H,2H,3H-pyrrolo[3,2-c]quinolin-4-amine trifluoroacetate] | 0.005
COc1cc2c3c(c(NC(C)C)nc2cc1OCCCN1CCCC1)CCC(C)N3 (centres unmarked) [Example 30, 9-methoxy-2-methyl-N-(propan-2-yl)-8-[3-(pyrrolidin-1-yl)propoxy]-1H,2H,3H,4H-benzo[h]1,6-naphthyridin-5-amine formate] | 0.008
COc1cc2c3c(c(NC(C)C)nc2cc1OCC1CCN(C)C1)CCC3 (centres unmarked) [Example 11, 8-methoxy-7-[(1-methylpyrrolidin-3-yl)methoxy]-N-(propan-2-yl)-1H,2H,3H-cyclopenta[c]quinolin-4-amine trifluoroacetate] | 0.27
COc1cc2c3c(c(N[C@H]4CCOC4)nc2cc1OCCCN1CCCC1)CCC3 [Example 18, 8-methoxy-N-[(3S)-oxolan-3-yl]-7-[3-(pyrrolidin-1-yl)propoxy]-1H,2H,3H-cyclopenta[c]quinolin-4-amine formate] | 0.11
COc1cc2c3c(c(NC(C)C)nc2cc1OCCCN1CCCC1)CC(C)C3 (centres unmarked) [Example 6, 8-methoxy-2-methyl-N-(propan-2-yl)-7-[3-(pyrrolidin-1-yl)propoxy]-1H,2H,3H-cyclopenta[c]quinolin-4-amine formate] | 0.027
CNc1nc2cc(OCCCN3CCCC3)c(OC)cc2c2c1CCC(C)N2 (centres unmarked) [Example 29, 9-methoxy-N,2-dimethyl-8-[3-(pyrrolidin-1-yl)propoxy]-1H,2H,3H,4H-benzo[h]1,6-naphthyridin-5-amine formate] | 0.009
CNc1nc2cc(OCCCN3CCCC3)c(OC)cc2c2c1CC(C)(C)N2 [Example 24, 8-methoxy-N,2,2-trimethyl-7-[3-(pyrrolidin-1-yl)propoxy]-1H,2H,3H-pyrrolo[3,2-c]quinolin-4-amine trifluoroacetate] | 0.006
COc1cc2c3c(c(NC(C)C)nc2cc1OCCCN1CCCC1)CCCCN3 [Example 34, 10-methoxy-N-(propan-2-yl)-9-[3-(pyrrolidin-1-yl)propoxy]-1H,2H,3H,4H,5H-azepino[3,2-c]quinolin-6-amine formate] | 0.01
COc1cc2c3c(c(NC(C)C)nc2cc1OCCCN1CCCC1)CCCN3 [Example 27, 9-methoxy-N-(propan-2-yl)-8-[3-(pyrrolidin-1-yl)propoxy]-1H,2H,3H,4H-benzo[h]1,6-naphthyridin-5-amine trifluoroacetate] | 0.006
CNc1nc2cc(OCCCN3CCCC3)c(OC)cc2c2c1CC(O)CC2 (centres unmarked) [Example 20, 2-methoxy-6-(methylamino)-3-[3-(pyrrolidin-1-yl)propoxy]-7,8,9,10-tetrahydrophenanthridin-8-ol formate] | 0.14

— patent US10829452B2, “Histone methyltransferase inhibitors” (GLOBAL BLOOD THERAPEUTICS, INC., priority 2016, dated 2020)
